Laboratory results as given in the supplement of paper PMC10307832.

Key:
Assay in all cases: relative viability (nuclei count vs DMSO), 5 days (fraction); higher = more cells survive
Everolimus + AZD7762 = compound: CO[C@H]1C[C@@H]2CC[C@@H](C)[C@@](O)(O2)C(=O)C(=O)N2CCCC[C@H]2C(=O)O[C@H]([C@H](C)C[C@@H]2CC[C@@H](OCCO)[C@H](OC)C2)CC(=O)[C@H](C)/C=C(\C)[C@@H](O)[C@@H](OC)C(=O)[C@H](C)C[C@H](C)/C=C/C=C/C=C/1C [Everolimus] + NC(=O)Nc1cc(-c2cccc(F)c2)sc1C(=O)N[C@H]1CCCNC1 [AZD7762] (partner 0.2 µM)
Method in brief: (§1)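 One day after seeding in 1536-well plates, lung cancer cell lines were dosed by pin tool. Dosing was either single-drug or a fixed anchor-drug dose plus five library-drug doses (not always all listed) in √10 steps. After 5 days, nuclei were stained in one fix-and-stain step and counted on 4× images, and relative viability is the nuclei count of treated wells over that of vehicle wells, given as the median of duplicate plates.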

Everolimus + Pictilisib = compound: CO[C@H]1C[C@@H]2CC[C@@H](C)[C@@](O)(O2)C(=O)C(=O)N2CCCC[C@H]2C(=O)O[C@H]([C@H](C)C[C@@H]2CC[C@@H](OCCO)[C@H](OC)C2)CC(=O)[C@H](C)/C=C(\C)[C@@H](O)[C@@H](OC)C(=O)[C@H](C)C[C@H](C)/C=C/C=C/C=C/1C [Everolimus] + CS(=O)(=O)N1CCN(Cc2cc3nc(-c4cccc5[nH]ncc45)nc(N4CCOCC4)c3s2)CC1 [Pictilisib] (partner 1 µM)
Method in brief: as §1

Everolimus + Foretinib = compound: CO[C@H]1C[C@@H]2CC[C@@H](C)[C@@](O)(O2)C(=O)C(=O)N2CCCC[C@H]2C(=O)O[C@H]([C@H](C)C[C@@H]2CC[C@@H](OCCO)[C@H](OC)C2)CC(=O)[C@H](C)/C=C(\C)[C@@H](O)[C@@H](OC)C(=O)[C@H](C)C[C@H](C)/C=C/C=C/C=C/1C [Everolimus] + COc1cc2c(Oc3ccc(NC(=O)C4(C(=O)Nc5ccc(F)cc5)CC4)cc3F)ccnc2cc1OCCCN1CCOCC1 [Foretinib] (partner 0.25 µM)
Method in brief: as §1

Everolimus + Vorinostat = compound: CO[C@H]1C[C@@H]2CC[C@@H](C)[C@@](O)(O2)C(=O)C(=O)N2CCCC[C@H]2C(=O)O[C@H]([C@H](C)C[C@@H]2CC[C@@H](OCCO)[C@H](OC)C2)CC(=O)[C@H](C)/C=C(\C)[C@@H](O)[C@@H](OC)C(=O)[C@H](C)C[C@H](C)/C=C/C=C/C=C/1C [Everolimus] + O=C(CCCCCCC(=O)Nc1ccccc1)NO [Vorinostat] (partner 1 µM)
Method in brief: as §1

| Cell Line | relative viability (Everolimus + AZD7762; first compound 0.01 µM) | relative viability (Everolimus + AZD7762; first compound 0.03162 µM) | relative viability (Everolimus + AZD7762; first compound 0.1 µM) | relative viability (Everolimus + AZD7762; first compound 0.3162 µM) | relative viability (Everolimus + AZD7762; first compound 1 µM) | relative viability (Everolimus + Pictilisib; first compound 0.01 µM) | relative viability (Everolimus + Pictilisib; first compound 0.03162 µM) | relative viability (Everolimus + Pictilisib; first compound 0.1 µM) | relative viability (Everolimus + Pictilisib; first compound 0.3162 µM) | relative viability (Everolimus + Pictilisib; first compound 1 µM) | relative viability (Everolimus + Foretinib; first compound 0.01 µM) | relative viability (Everolimus + Foretinib; first compound 0.03162 µM) | relative viability (Everolimus + Foretinib; first compound 0.1 µM) | relative viability (Everolimus + Foretinib; first compound 0.3162 µM) | relative viability (Everolimus + Foretinib; first compound 1 µM) | relative viability (Everolimus + Vorinostat; first compound 0.01 µM) | relative viability (Everolimus + Vorinostat; first compound 0.03162 µM) | relative viability (Everolimus + Vorinostat; first compound 0.1 µM) | relative viability (Everolimus + Vorinostat; first compound 0.3162 µM) | relative viability (Everolimus + Vorinostat; first compound 1 µM) |
| --- | --- | --- | --- | --- | --- | --- | --- | --- | --- | --- | --- | --- | --- | --- | --- | --- | --- | --- | --- | --- |
| EPLC-272H | 0.133 | 0.229 | 0.172 | 0.172 | 0.222 | 0.274 | 0.295 | 0.188 | 0.211 | 0.262 | 0.451 | 0.414 | 0.443 | 0.417 | 0.489 | 0.512 | 0.306 | 0.289 | 0.336 | 0.305 |
| BEN | 0.377 | 0.394 | 0.417 | 0.41 | 0.444 | 0.312 | 0.281 | 0.254 | 0.295 | 0.336 | 0.336 | 0.268 | 0.277 | 0.323 | 0.35 | 0.401 | 0.337 | 0.368 | 0.353 | 0.391 |
| ABC-1 | 0.667 | 0.479 | 0.747 | 0.702 | 0.89 | 0.389 | 0.371 | 0.413 | 0.542 | 0.557 | 0.82 | 0.826 | 0.645 | 0.699 | 0.739 | 0.56 |  | 0.741 |  | 0.941 |
| HCC-15 | 1.37 | 1.26 | 1.33 | 1.24 | 1.48 | 0.633 | 0.517 | 0.372 | 0.539 | 0.545 | 1.15 | 1.03 | 1.01 | 0.964 | 0.985 | 0.937 | 0.862 | 0.767 | 0.753 | 0.77 |
| NCI-H2170 | 0.367 | 0.403 | 0.334 | 0.374 | 0.401 | 0.229 | 0.234 | 0.159 | 0.214 | 0.198 | 0.635 | 0.641 | 0.654 | 0.587 | 0.614 | 0.326 | 0.314 | 0.27 | 0.309 | 0.338 |
| PC-3 [JPC-3] | 0.58 | 0.499 | 0.615 |  | 0.647 | 0.581 | 0.585 | 0.516 | 0.622 | 0.53 | 1.16 | 1.13 | 0.994 | 0.985 | 0.987 | 0.693 | 0.498 | 0.54 |  | 0.566 |
| NCI-H1993 | 0.461 | 0.505 | 0.371 | 0.472 | 0.439 | 0.793 | 0.739 | 0.715 | 0.786 | 0.86 | 0.554 | 0.592 | 0.667 | 0.628 | 0.627 | 0.429 | 0.488 | 0.438 | 0.377 | 0.508 |
| NCI-H358 | 0.358 | 0.361 | 0.396 | 0.18 | 0.325 | 0.257 | 0.241 | 0.213 | 0.257 | 0.213 | 0.432 | 0.45 | 0.496 | 0.388 | 0.432 | 0.431 | 0.434 | 0.388 | 0.417 | 0.47 |
